Test results from patent US20230210849A1, “CADHERIN-11 INHIBITOR FORMULATION AND ITS USES IN IMMUNOTHERAPY” (GEORGETOWN UNIVERSITY, priority 2020, published 2023).
Entries after “also recorded” stand apart in the source; their conditions may differ.

Experiments:
[1] = test system: mT3 pancreatic cancer cells; test: s.c. mT3 pancreatic tumor growth in immunocompetent C57BL/6J transplant mice; type: in vivo, mouse; settings: for growth rate of pre-existing tumors: started at average tumor volume 100 mm^3 (FIG. 5H)
Description: The experimental protocols were approved by the Georgetown University Animal Care and Use Committee. A pair of CDH11^−/− mice (Horikawa et al. Dev. Biol. 215: 182-189 (1999)) was kindly provided by Dr. Michael Brenner from Harvard University. A breeding pair of p48-Cre;LSL-Kras^G12D/+;LSL-Trp53^R172H/+ (KPC) mice (Hingorani et al. Cancer Cell 7: 469-483 (2005)) was provided by Dr. Anton Wellstein from Georgetown University. C57BL/6J mice (Cat #000664; Research Resource Identifier (RRID): IMSR_JAX:000664) and Rag1-mutant mice on C57BL/6J background (Cat #002216; RRID: IMSR_JAX:002216) were purchased from The Jackson Laboratory (Bar Harbor, Me.). In transplant experiments, 12-week old C57BL/6J and Rag1-mutant (on C57BL/6J background) mice were bilaterally subcutaneously (s.c.) injected with 5×10^5 mT3 pancreatic cancer cells, derived from a Kras^+/LSL-G12D;Trp53^+/LSL-R172H;Pdx-Cre mouse on C57BL/6 background. Both genders of mice were equally represented throughout all in vivo experiments. Mice were housed in specific pathogen free environment under standard conditions. See, Bandrowski et al. “The Resource Identification Initiative: A cultural shift in publishing,” F1000Res 4: 134 (2015), regarding Research Resource Identifiers (RRIDs),
(§1) Anti-PD1 (InVivoPlus anti-mouse PD1 (CD279), clone RMP1-14, Cat #BP0146, Bio X Cell (Lebanon, N.H.)) was administered intraperitoneally (i.p.) at 250 μg/mouse, 2× week. Gemcitabine (G-4177, LC Laboratories (Woburn, Mass.)) was administered i.p. at 100 mg/kg, 2× week. Treatment with CDH11 monoclonal antibody (mAb), SYN0012 (Roche (Basel, Switzerland)) was administered i.p. at 10 mg/kg, 2× week. Treatment with a small molecule CDH11-inhibitor, SD133, was administered i.p. at 150 mg/kg, 40 mg/kg or 10 mg/kg, 4× week. Stock solution of SD133 at 375 mg/mL was made in DMSO (Sigma (St. Louis, Mo.)), and further diluted in 30% PEG400 (Sigma).

[2] = test system: mT3 pancreatic cancer cells; test: s.c. mT3 tumor growth in immunocompromised Rag1-mutant mice; type: in vivo, mouse; settings: SD133 40 mg/kg, pre-existing tumors 100 mm^3, Rag1-mutant mice without mature T and B cells (FIG. 5I)
Description: (§2) The experimental protocols were approved by the Georgetown University Animal Care and Use Committee. A pair of CDH11^−/− mice (Horikawa et al. Dev. Biol. 215: 182-189 (1999)) was kindly provided by Dr. Michael Brenner from Harvard University. A breeding pair of p48-Cre;LSL-Kras^G12D/+;LSL-Trp53^R172H/+ (KPC) mice (Hingorani et al. Cancer Cell 7: 469-483 (2005)) was provided by Dr. Anton Wellstein from Georgetown University. C57BL/6J mice (Cat #000664; Research Resource Identifier (RRID): IMSR_JAX:000664) and Rag1-mutant mice on C57BL/6J background (Cat #002216; RRID: IMSR_JAX:002216) were purchased from The Jackson Laboratory (Bar Harbor, Me.). In transplant experiments, 12-week old C57BL/6J and Rag1-mutant (on C57BL/6J background) mice were bilaterally subcutaneously (s.c.) injected with 5×10^5 mT3 pancreatic cancer cells, derived from a Kras^+/LSL-G12D;Trp53^+/LSL-R172H;Pdx-Cre mouse on C57BL/6 background. Both genders of mice were equally represented throughout all in vivo experiments. Mice were housed in specific pathogen free environment under standard conditions. See, Bandrowski et al. “The Resource Identification Initiative: A cultural shift in publishing,” F1000Res 4: 134 (2015), regarding Research Resource Identifiers (RRIDs), […]

[3] = Body weight / toxicity of treated mT3 tumor-bearing mice; type: in vivo, mouse
Method: Body weight of C57BL/6J mice engrafted with syngeneic mT3 cells and treated with (A) vehicle (DMSO), (B) gemcitabine, (C) CDH11 mAb, (D) CDH11 mAb+ gemcitabine, (E) SD133 at 150 mg/kg for 2 weeks, (F) SD133 at 150 mg/kg for 2 weeks+ gemcitabine; (G) vehicle (10% DMSO in 30% PEG400), (H) SD133 at 150 mg/kg for 5 weeks, and mice with pre-existing mT3 tumors treated with (I) SD133 at 40 mg/kg, and (J) SD133 at 10 mg/kg. Mouse body weight was measured once or twice a week. Body weight of immunodeficient Rag1-mutant mice on C57BL/6J background with pre-existing syngeneic mT3 tumors treated with (K) vehicle (10% DMSO in 30% PEG400), and (L) SD133 at 40 mg/kg. Gender of mice is indicated in the graphs by commonly used gender symbols. The dose, route and treatment schedule are indicated in colored bars under the x-axes.
as §1

[4] = biological target: T1, CDH11 (Homo sapiens, UniProt P55287); settings: in vitro; previously characterized and validated; cited from earlier work
T1 sequence (P55287 54-796): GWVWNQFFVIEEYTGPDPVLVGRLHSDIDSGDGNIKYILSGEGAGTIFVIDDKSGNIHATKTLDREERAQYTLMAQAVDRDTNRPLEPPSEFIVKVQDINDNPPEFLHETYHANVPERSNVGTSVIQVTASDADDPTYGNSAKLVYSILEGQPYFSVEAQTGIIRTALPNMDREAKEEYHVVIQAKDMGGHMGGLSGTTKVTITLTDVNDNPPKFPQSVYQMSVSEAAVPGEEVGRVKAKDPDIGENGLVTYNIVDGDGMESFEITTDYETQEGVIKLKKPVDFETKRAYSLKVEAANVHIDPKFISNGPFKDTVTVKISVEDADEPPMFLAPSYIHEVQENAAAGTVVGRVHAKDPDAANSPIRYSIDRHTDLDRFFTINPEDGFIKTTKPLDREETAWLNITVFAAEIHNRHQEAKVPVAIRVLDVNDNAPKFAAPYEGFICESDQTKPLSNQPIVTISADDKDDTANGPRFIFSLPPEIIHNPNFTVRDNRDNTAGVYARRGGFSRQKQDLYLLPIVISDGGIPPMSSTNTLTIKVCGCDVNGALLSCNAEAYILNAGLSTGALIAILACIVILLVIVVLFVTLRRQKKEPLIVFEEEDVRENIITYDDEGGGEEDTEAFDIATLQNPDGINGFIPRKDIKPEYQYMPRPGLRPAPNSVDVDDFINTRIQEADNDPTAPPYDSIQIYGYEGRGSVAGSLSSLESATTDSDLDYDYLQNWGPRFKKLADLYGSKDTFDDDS

[5] = test system: KPC mice (PDAC); test: Survival of KPC transgenic PDAC mice under treatment; type: in vivo, mouse
Description: as §2

[6] = single agent, mT3-engrafted mice (FIG. 11)

| SMILES | growth rate of pre-existing tumors ([1]; SD133 10 mg/kg) | growth rate of pre-existing tumors ([1]; SD133 40 mg/kg) | tumor growth ([1]; SD133 150 mg/kg continued throughout the study, 5 weeks (FIG. 5G)) | combinatorial effect with gemcitabine on tumor growth ([1]; SD133 for 2 weeks + gemcitabine i.p. 100 mg/kg 2x week (FIG. 5F)) | tumor growth ([1]; SD133 i.p. 150 mg/kg 4x week for 2 weeks, beginning on day 2 after cancer cell injection (FIG. 5E)) | tumor size versus control after treatment discontinued ([1]; after the 2-week SD133 treatment was discontinued) | efficacy as a monotherapy (summary) ([1]; immunocompetent mT3 model, summary statement) | tumor growth [2] | mouse body weight ([3]; in combination with gemcitabine, mT3-engrafted C57BL/6J mice (FIG. 11)) | toxicity ([3]; mouse, in vivo) | mouse body weight [3, 6] | affinity of binding to the CDH11 binding pocket [4] | tumor growth ([1]; monotherapy, gemcitabine i.p. 100 mg/kg 2x week or CDH11 mAb i.p. 10 mg/kg 2x week (FIG. 5A, 5B)) | first PDAC-related death ([5]; KPC/CDH11-deficient mice, gemcitabine 6 weeks starting at 100 days of age) | overall survival versus untreated KPC/CDH11-deficient group ([5]; gemcitabine 6 weeks starting at 100 days of age (FIG. 4B)) |
| --- | --- | --- | --- | --- | --- | --- | --- | --- | --- | --- | --- | --- | --- | --- | --- |
| Oc1ccc(-c2cccnc2-c2ccccc2)cc1 [SD133] | significantly reduced | significantly reduced | reduced tumor growth was observed for the duration of the treatment | not observed | marked reduction in tumor growth | remained significantly smaller than tumors in control animals | remarkably effective | did not suppress tumor growth | does not affect mouse body weight | no sign of toxicity | no decrease in animal weight; also recorded: does not affect mouse body weight | low μM | – | – | – |
| Nc1ccn([C@@H]2O[C@H](CO)[C@@H](O)C2(F)F)c(=O)n1 [gemcitabine, reference compound] | – | – | – | – | – | – | – | – | – | – | does not affect mouse body weight | – | did not reduce tumor growth | 165 days | improved significantly |
